For one experiment, the target named is human IGF-1R (Homo sapiens (Human), UniProt P08069). Briefly: Cellular IGF-1R-phosphorylation assay (Fibro-hIGF-1R cells). It is filed as cell-based. Conditions: IGF-1 stimulated (20 ng/mL, 30 min), 120 min compound incubation, read-out: pIGF-1R EC50 range. On the procedure: Cellular IGF-1R-Phosphorylation Assay
The activity of substances against the phosphorylation of IGF-1R in activated cells is measured as follows: mouse fibroblast cells (transfected with human IGF-1R, Fibro-hIGF-1R) are cultivated in standard medium (DMEM, 10% foetal calf serum (FCS, Gibco), 1×MEM Non-Essential Amino Acids (NEAA, Gibco), 7.5% sodium hydrogen carbonate (Gibco) and 0.3 mg/mL Puromycin (Sigma)) in a humid incubator at 37° C. with 5 CO2/95% air.
10000 Fibro-hIGF-1R cells per well in 200 μL of standard medium are seeded into 96-well plates and cultivated overnight. […] 10 μL of substance solution (diluted in serum-reduced medium) is added thereto, and the cells are incubated for a further 120 min in the incubator. The phosphorylation of IGF-1R is activated for 30 min by the addition of IGF-1 (20 ng/mL in serum-reduced medium). All further incubations are carried out at RT. The supernatant is suction filtered from the wells, and the cells are fixed in 100 μL per well of 4% paraformaldehyde (diluted in PBS). The supernatant in the well is suction filtered and the cells are permeabilised for 5 min in 300 μL per well of 0.1% TritonX-100 (diluted in PBS). […] The cells are washed for 5 min with 300 μL per well of PBS with 0.1% TritonX-100 and then incubated for 60 min with 100 μL per well of blocking buffer (PBS with 0.1% TritonX-100 and 5 Bovine Serum Albumin (BSA)). […] The next day the plates are washed for 5 min with 300 μL PBS/0.1% TritonX-100 at RT and then incubated for 60 min with 50 μL per well of the second antibody buffer (1/500 diluted Goat Anti-Rabbit Immunoglobulin-Horseradish Peroxidase (HRP) (Dako) in blocking buffer) at RT. The plates are washed first for 5 min with 300 μL PBS/0.1% TritonX-100 and then for a further 5 min with 300 μL PBS at RT. The plates are developed for 10 min with 100 μL per well of a peroxidase solution (1:1 mixture of TMB Peroxidase Substrate and Peroxidase Solution B from Kirkegaard & Perry Laboratories, Inc.). The reactions are stopped with 100 μL per well of stop solution (1 M phosphoric acid). The absorbance in each well is measured at 450 nm with a SpectraMax Absorbance Reader. EC50 values for inhibiting the phosphorylation of the IGF-1R in activated cells are calculated using the programmes Fifty (Version 2) and GraphPad (Version 3.0).

In experiment [1] the test system is TC-71 (Ewing's sarcoma) cells. Put plainly: Cell proliferation assay, TC-71 (Alamar Blue). Type of experiment: cell-based. Conditions: TC-71 cells, 72 h, read-out: TC71 EC50 range. How it is done: Cell Proliferation Assays
Published scientific data has described that interference with the Insulin-like Growth Factor-1 Receptor (IGF-1R) signaling pathway reduces the proliferation of TC-71 cells. Therefore TC-71 cells served as a positive control cell line for monitoring the activity of compounds against IGF-1R-mediated cell proliferation.
2000 TC-71 cells or 1000 HCT 116 cells were seeded per well in 180 μL IMDM+10% foetal calf serum (FCS)+penicillin/streptomycin into 96-well microtitre plates. The plates were placed in a cell culture incubator (37° C. in a humidified atmosphere of 95% […]/5 CO2) overnight. The following day, serial dilutions of compounds, prepared in duplicates, were transferred onto the cell layers (controls without compound). The cells were cultivated for a further 72 h in the cell culture incubator. 20 μL of Alamar Blue™ (Serotec Ltd, Düsseldorf, Germany) was added to each well and the plates incubated for 7 h in the cell culture incubator.

Experiment [2] has as its target cytoplasmic kinase domain of human IGF-1R (IGF-1R-GST) (Homo sapiens (Human), UniProt P08069). Put plainly: Insulin-like growth factor-1 receptor (IGF-1R) kinase assay (DELFIA). It is filed as biochemical. Conditions: inhibition of IGF-1R-kinase activity, read-out: IGF1R IC50. How it is done:
Insulin-Like Growth Factor-1 Receptor (IGF-1R)-Kinase Assay
The kinase activity is measured by DELFIA® assay (dissociation-enhanced lanthanide fluorescence immunoassay, Perkin Elmer). […] Enzyme activity is measured in the presence of substances and a control substance. Poly-glutamate-tyrosine peptide (pEY, Sigma Aldrich) and biotinylated pEY (bio-pEY) are used as reaction substrates.
After 40 min at RT the reactions are stopped with 50 μL of stop solution (250 mM EDTA, 20 mM HEPES pH 7.4). 90 μL from each reaction are transferred onto streptavidin-coated 96-well plates. After 120 min incubation at RT the plates are washed three times with 200 μL phosphate-buffered saline (PBS) per well. The plates are incubated for 60 min with 100 μL of europium-coupled antibody against phospho-tyrosine (diluted 1/2000 in Perkin Elmer DELFIA assay buffer) per well. The plates are washed three times with 200 μL per well of DELFIA washing buffer. 100 μL DELFIA Enhancement Solution (Perkin Elmer) is added to each well, and the plates are incubated for 10 min. The fluorescence signal is measured with a Wallac Victor TRF Reader. IC50 values for the inhibition of the IGF-1R-kinase activity are calculated using the programmes Fifty (Version 2) and GraphPad (Version 3.0).

Data on 25 compounds can be found in US9150578B2, “5,8-dihydro-6H-pyrazolo[3,4-h]quinazolines as IGF-1R/IR inhibitors” (Boehringer Ingelheim International GmbH, priority 2012, dated 2015).

human IGF-1R, sequence (P08069 31-1367): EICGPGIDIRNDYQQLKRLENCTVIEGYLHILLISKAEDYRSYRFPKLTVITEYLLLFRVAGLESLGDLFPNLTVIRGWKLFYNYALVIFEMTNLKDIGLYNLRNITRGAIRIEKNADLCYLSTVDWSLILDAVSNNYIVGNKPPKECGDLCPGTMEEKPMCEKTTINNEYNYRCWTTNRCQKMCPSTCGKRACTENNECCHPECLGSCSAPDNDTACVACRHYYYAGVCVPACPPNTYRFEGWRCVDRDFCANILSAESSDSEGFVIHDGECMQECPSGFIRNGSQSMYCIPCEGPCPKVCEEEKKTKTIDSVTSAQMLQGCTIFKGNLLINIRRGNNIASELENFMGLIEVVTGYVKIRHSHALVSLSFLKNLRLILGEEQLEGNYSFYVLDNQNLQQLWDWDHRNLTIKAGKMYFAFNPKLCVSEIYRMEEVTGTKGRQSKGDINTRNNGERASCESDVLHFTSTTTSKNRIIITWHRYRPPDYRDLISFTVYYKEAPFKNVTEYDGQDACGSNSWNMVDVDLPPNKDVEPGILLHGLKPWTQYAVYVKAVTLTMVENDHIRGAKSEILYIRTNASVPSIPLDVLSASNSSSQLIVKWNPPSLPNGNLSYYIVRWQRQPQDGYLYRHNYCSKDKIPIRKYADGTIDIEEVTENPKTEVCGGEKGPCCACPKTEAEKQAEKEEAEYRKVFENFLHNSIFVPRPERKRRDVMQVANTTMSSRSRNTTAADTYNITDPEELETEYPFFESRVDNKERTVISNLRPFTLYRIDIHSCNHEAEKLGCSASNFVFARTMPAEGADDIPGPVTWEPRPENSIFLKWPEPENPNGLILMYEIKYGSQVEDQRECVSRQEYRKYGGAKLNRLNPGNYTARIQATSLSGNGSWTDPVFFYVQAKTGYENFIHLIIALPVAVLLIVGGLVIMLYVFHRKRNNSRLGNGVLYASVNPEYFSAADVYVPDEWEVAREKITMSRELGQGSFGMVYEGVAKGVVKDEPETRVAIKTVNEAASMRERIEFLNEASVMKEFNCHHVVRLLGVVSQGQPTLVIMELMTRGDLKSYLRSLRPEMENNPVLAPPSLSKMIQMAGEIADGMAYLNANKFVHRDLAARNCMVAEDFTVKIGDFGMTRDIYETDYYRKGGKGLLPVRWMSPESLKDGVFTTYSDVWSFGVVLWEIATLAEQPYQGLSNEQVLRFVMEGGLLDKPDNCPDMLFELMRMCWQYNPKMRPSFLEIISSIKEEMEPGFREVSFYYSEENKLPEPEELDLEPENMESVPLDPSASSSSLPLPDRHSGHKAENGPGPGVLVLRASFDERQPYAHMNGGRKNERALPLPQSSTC
cytoplasmic kinase domain of human IGF-1R (IGF-1R-GST), sequence (P08069 964-1367 limits assumed): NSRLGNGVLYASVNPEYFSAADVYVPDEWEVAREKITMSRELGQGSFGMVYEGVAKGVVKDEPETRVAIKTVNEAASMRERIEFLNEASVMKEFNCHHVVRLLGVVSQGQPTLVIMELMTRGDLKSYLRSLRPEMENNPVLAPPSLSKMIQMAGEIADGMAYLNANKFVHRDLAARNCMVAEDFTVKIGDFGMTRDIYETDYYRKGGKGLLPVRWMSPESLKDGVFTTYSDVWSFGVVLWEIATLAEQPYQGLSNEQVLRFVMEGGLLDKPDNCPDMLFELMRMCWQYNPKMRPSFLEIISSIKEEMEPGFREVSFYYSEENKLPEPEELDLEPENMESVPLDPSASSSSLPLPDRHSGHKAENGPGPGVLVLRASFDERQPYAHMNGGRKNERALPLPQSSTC

Consider `COc1cc(C(=O)N2CCN(C)CC2)ccc1Nc1ncc2c(n1)-c1c(nn(C)c1-c1ccc(-c3cnn(C)c3)cc1)CC2` [I-129], for which the EC50 (on human IGF-1R; in experiment [1]) was below 10 nM each time. Also, the half-maximal inhibitory concentration (IC50) in experiment [2] was 0.16 nM.
For `CC(=O)N1CCC(n2cc(Nc3ncc4c(n3)-c3c(nn(C)c3-c3ccc(-c5cnn(C(C)C)c5)cc3)CC4)cn2)CC1` [I-022], the EC50 is 10 to 100 nM on human IGF-1R and below 10 nM in experiment [1]. Also, the IC50 in experiment [2] was determined as 0.17 nM.
As for `COCCn1cc(Nc2ncc3c(n2)-c2c(nn(C)c2-c2ccc(-c4cnn(C(C)C)c4)cc2)CC3)cn1` [I-027], the EC50 (on human IGF-1R; in experiment [1]) was below 10 nM throughout. The IC50 in experiment [2] amounted to 0.28 nM.
Regarding `CN(C)S(=O)(=O)N1CCC(n2cc(Nc3ncc4c(n3)-c3c(nn(C)c3-c3ccc(-c5cnn(C)c5)cc3)CC4)cn2)CC1` [I-178], the EC50 in experiment [1] is below 10 nM. Moreover, the IC50 in experiment [2] worked out at 0.34 nM.
As to `COc1cc(C(=O)N[C@@H]2CCN(C)C[C@H]2OC)ccc1Nc1ncc2c(n1)-c1c(nn(C)c1-c1ccc(-c3cnn(C)c3)cc1)CC2` [I-163], the EC50 (at human IGF-1R; in experiment [1]) was below 10 nM in each case. Further, the IC50 in experiment [2] stood at 0.23 nM.
Regarding `CC(=O)N1CCC(n2cc(Nc3ncc4c(n3)-c3c(nn(C)c3Cc3cccc(-c5cnn(C)c5)c3)CC4)cn2)CC1` [I-013], the concentration for a half-maximal effect (EC50) was 10 to 100 nM on human IGF-1R and below 10 nM in experiment [1]. Further, the concentration for half-maximal inhibition (IC50) in experiment [2] is 0.39 nM.
In the case of `CCN1CCN(c2ccc(Nc3ncc4c(n3)-c3c(nn(C)c3-c3ccc(-c5cnn(C)c5)cc3)CC4)c(OC)c2)CC1` [I-170], the EC50 (at human IGF-1R; in experiment [1]) was below 10 nM each time. In experiment [2], the IC50 came out at 0.09 nM.
Regarding `COc1cc(N2CCN(C3CCOCC3)CC2)ccc1Nc1ncc2c(n1)-c1c(nn(C)c1-c1ccc(-c3cnn(C)c3)cc1)CC2` [I-171], the EC50 (at human IGF-1R; in experiment [1]) was below 10 nM throughout. Besides, the IC50 in experiment [2] worked out at 0.08 nM.
As to `Cn1cc(-c2ccc(-c3c4c(nn3C)CCc3cnc(Nc5cnn(C6CCN(S(C)(=O)=O)CC6)c5)nc3-4)cc2)cn1` [I-177], the EC50 in experiment [1] was below 10 nM. The half-maximal inhibitory concentration (IC50) in experiment [2] was determined as 0.23 nM.
Consider `COc1cc(C(=O)NC2CCOCC2)ccc1Nc1ncc2c(n1)-c1c(nn(C)c1-c1ccc(-c3cnn(C)c3)cc1)CC2` [I-160], for which the EC50 (on human IGF-1R; in experiment [1]) was below 10 nM throughout. In addition, the IC50 in experiment [2] was found to be 0.61 nM.
For the compound `CCn1ccc(Nc2ncc3c(n2)-c2c(nn(C)c2-c2ccc(-c4cnn(CCN5CCC(N(C)C)CC5)c4)cc2)CC3)n1` [I-119], the EC50 (on human IGF-1R; in experiment [1]) was below 10 nM throughout. Also, the IC50 in experiment [2] stood at 0.09 nM.
For `CCn1ccc(Nc2ncc3c(n2)-c2c(nn(C)c2-c2ccc(-c4cnn(C5CCNCC5)c4)cc2)CC3)n1` [I-063], the EC50 was 10 to 100 nM on human IGF-1R and below 10 nM in experiment [1]. For the same compound, the IC50 in experiment [2] came out at 0.16 nM.
For the compound `CC(=O)N1CCC(n2cc(Nc3ncc4c(n3)-c3c(nn(C)c3-c3ccc(-c5cnn(C)c5)cc3)CC4)cn2)CC1` [I-051], the EC50 at human IGF-1R was 10 to 100 nM; in experiment [1], below 10 nM. In experiment [2], the IC50 is 0.21 nM.
The corresponding values for `COc1cc(C(=O)NC2CN(C)C2)ccc1Nc1ncc2c(n1)-c1c(nn(C)c1-c1ccc(-c3cnn(C)c3)cc1)CC2` [I-164] are 10 to 100 nM, below 10 nM and 0.19 nM.
Consider `CCn1ccc(Nc2ncc3c(n2)-c2c(nn(C)c2-c2ccc(-c4cnn(C)c4)cc2Cl)CC3)n1` [I-064], for which the EC50 (at human IGF-1R; in experiment [1]) was below 10 nM each time. The IC50 in experiment [2] was found to be 0.31 nM.
With `CC(C)n1cc(-c2ccc(-c3c4c(nn3C)CCc3cnc(Nc5cnn(CCN(C)C)c5)nc3-4)cc2)cn1` [I-020], the EC50 (on human IGF-1R; in experiment [1]) was below 10 nM in each case. For the same compound, the IC50 in experiment [2] is 0.21 nM.
In the case of `CCn1ccc(Nc2ncc3c(n2)-c2c(nn(C)c2-c2ccc(-c4c(C)noc4C)cc2)CC3)n1` [I-066], the EC50 on human IGF-1R was 100 to 600 nM; in experiment [1], 100 to 200 nM. In experiment [2], the IC50 was determined as 15 nM.
The corresponding values for `COc1cc(N2CCN(C(C)C)CC2)ccc1Nc1ncc2c(n1)-c1c(nn(C)c1-c1ccc(-c3cnn(C)c3)cc1)CC2` [I-172] are below 10 nM, below 10 nM and 0.05 nM.
In the case of `COc1cc(C(=O)NC(C)C)ccc1Nc1ncc2c(n1)-c1c(nn(C)c1-c1ccc(-c3cnn(C)c3)cc1)CC2` [I-132], the EC50 at human IGF-1R is below 10 nM. Further, the IC50 in experiment [2] came out at 0.26 nM.
Turning to `CN(C)[C@H]1CCN(C(=O)Cn2ccc(Nc3ncc4c(n3)-c3c(nn(C)c3-c3ccc(-c5cnn(C)c5)cc3)CC4)n2)C1` [I-143], the EC50 was 10 to 100 nM on human IGF-1R and below 10 nM in experiment [1]. Also, in experiment [2], the IC50 was 0.24 nM.
As for `COc1cc(C(=O)N2CCOCC2)ccc1Nc1ncc2c(n1)-c1c(nn(C)c1-c1ccc(-c3cnn(C)c3)cc1)CC2` [I-156], the EC50 (on human IGF-1R; in experiment [1]) was below 10 nM in each case. Besides, the IC50 in experiment [2] stood at 0.22 nM.
Turning to `CC(=O)N1CCC(n2cc(Nc3ncc4c(n3)-c3c(nn(C)c3-c3ccc(-c5cnn(C)c5)nc3)CC4)cn2)CC1` [I-180], the concentration for a half-maximal effect (EC50) lay in the range of 100 to 600 nM on human IGF-1R and 10 to 100 nM in experiment [1]. Moreover, the IC50 in experiment [2] came out at 2 nM.
The matching figures for `COc1cc(N2CCN(S(=O)(=O)N(C)C)CC2)ccc1Nc1ncc2c(n1)-c1c(nn(C)c1-c1ccc(-c3cnn(C)c3)cc1)CC2` [I-176]: below 10 nM, below 10 nM and 2 nM.
Regarding `CC(C)n1cc(-c2ccc(-c3c4c(nn3C)CCc3cnc(Nc5cnn(CCN6CCOCC6)c5)nc3-4)cc2)cn1` [I-023], the EC50 (at human IGF-1R; in experiment [1]) was below 10 nM each time. Also, the IC50 in experiment [2] was found to be 0.42 nM.
`COCCN1CCC(n2cc(Nc3ncc4c(n3)-c3c(nn(C)c3-c3ccc(-c5cnn(C)c5)cc3)CC4)cn2)CC1` [I-175]: in experiment [1], the EC50 is below 10 nM. Also, the IC50 in experiment [2] came out at 0.16 nM.
